According to paper PMC3582829 (European journal of medicinal chemistry, 2012):
Where two headings read alike, the source gives them in different places.

Columns and labels:
TcFPPS = TcFPPS (Trypanosoma cruzi, UniProt Q8WS26); format: biochemical
T. cruzi amastigotes [1] = test: T. cruzi amastigote assay in Vero cells; format: cell-based, Trypanosoma cruzi; details: intracellular T. cruzi
T. cruzi amastigotes [2] = details: positive control; cited from earlier work
T. gondii tachyzoites = details: positive control, cited from earlier work

Row | Structure (SMILES) | activity towards TcFPPS (in words) (TcFPPS) | activity against T. cruzi amastigotes (in words) (T. cruzi amastigotes [1]) | ED50 T. cruzi amastigotes (T. cruzi amastigotes [2]) | ED50 T. gondii (T. gondii tachyzoites; listed as risedronate) [µM] | ED50 T. gondii (T. gondii tachyzoites)
1 | CCCCCC(C)NCC(P(=O)(O)O)P(=O)(O)O (stereo not drawn) [Compound 18, 1-[(n-Hept-2-ylamino)ethyl] 1,1-bisphosphonic Acid] | almost devoid of antiparasitic activity | almost devoid of antiparasitic activity |  |  | 
2 | CCCCCCCNCC(O)(P(=O)(O)O)P(=O)(O)O [Compound 21, 1-[(n-Heptylamino)ethyl]-1-hydroxy-1,1-bisphosphonic Acid] | almost devoid of antiparasitic activity | almost devoid of antiparasitic activity |  |  | 
3 | CCCCCCCSCC(P(=O)(O)O)P(=O)(O)O [Compound 36, 1-[(n-Heptylthio)ethyl]-1,1-bisphosphonic Acid] | devoid of anti-T. cruzi activity | devoid of anti-T. cruzi activity |  |  | 
4 | O=P(O)(O)C(O)(Cc1cccnc1)P(=O)(O)O [Risedronate, risedronate] |  |  | 55.0 ± 5.0 [68] μM | 2.4 | 2.4 ± 0.7 [29] μM
